Experimental findings from ChEMBL document CHEMBL1201862, “PubChem BioAssay data set” (2004) are described below.

Activity calls are given as the source filed them.

In general, GI50 refers to the concentration that inhibits growth by half. By EC50 is commonly meant the concentration giving half of the maximal effect. What is called IC50 is the concentration that gives 50% inhibition. In general, AC50 refers to the midpoint of the concentration-response curve, whichever way the signal moves.

For experiment [1], the system named is P388/ADR. The experiment in a line: cells. The class given is functional. The following applies: Mus musculus.
For experiment [2], the system named is SN12K1. The experiment in a line: cells. In kind it is functional. The following applies: Homo sapiens.
For experiment [3], the system named is P388. Briefly: cells. The class given is functional. The following applies: Mus musculus.
The nature of experiment [4]: Luminescence Cell-Based Dose Response HTS to Identify Activators of Luciferase Translation or Activity in H4 […] Cells. [Related pubchem assays: 1829 (Project Summary), 1814 (Primary HTS)]. The class given is functional.
Experiment [5] can be described thus: Luminescence Cell-Based Dose Confirmation HTS to Identify Activators of 5'UTR Stem-Loop Driven Alpha-Synuclein mRNA Translation in H4 Neuroglioblastoma Cells. [Related pubchem assays: 1829 (Project Summary), 1814 (Primary HTS)]. In kind it is functional.
Experiment [6] has as its system H4. Briefly: Luminescence Cell-Based Dose Response HTS to Identify Activators of 5'UTR Stem-Loop Driven Prion Protein mRNA Translation in H4 Neuroglioblastoma Cells. [Related pubchem assays: 1829 (Project Summary), 1814 (Primary HTS)]. The conditions noted are these: Homo sapiens. In kind it is functional.
In experiment [7] the target is T1, Sentrin-specific protease 7 (Homo sapiens, UniProt Q9BQF6).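 Also: Luminescence-based dose-response confirmation of ultra-high-throughput screening hits, measuring inhibition of SENP7.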
T1 sequence (Q9BQF6 whole entry): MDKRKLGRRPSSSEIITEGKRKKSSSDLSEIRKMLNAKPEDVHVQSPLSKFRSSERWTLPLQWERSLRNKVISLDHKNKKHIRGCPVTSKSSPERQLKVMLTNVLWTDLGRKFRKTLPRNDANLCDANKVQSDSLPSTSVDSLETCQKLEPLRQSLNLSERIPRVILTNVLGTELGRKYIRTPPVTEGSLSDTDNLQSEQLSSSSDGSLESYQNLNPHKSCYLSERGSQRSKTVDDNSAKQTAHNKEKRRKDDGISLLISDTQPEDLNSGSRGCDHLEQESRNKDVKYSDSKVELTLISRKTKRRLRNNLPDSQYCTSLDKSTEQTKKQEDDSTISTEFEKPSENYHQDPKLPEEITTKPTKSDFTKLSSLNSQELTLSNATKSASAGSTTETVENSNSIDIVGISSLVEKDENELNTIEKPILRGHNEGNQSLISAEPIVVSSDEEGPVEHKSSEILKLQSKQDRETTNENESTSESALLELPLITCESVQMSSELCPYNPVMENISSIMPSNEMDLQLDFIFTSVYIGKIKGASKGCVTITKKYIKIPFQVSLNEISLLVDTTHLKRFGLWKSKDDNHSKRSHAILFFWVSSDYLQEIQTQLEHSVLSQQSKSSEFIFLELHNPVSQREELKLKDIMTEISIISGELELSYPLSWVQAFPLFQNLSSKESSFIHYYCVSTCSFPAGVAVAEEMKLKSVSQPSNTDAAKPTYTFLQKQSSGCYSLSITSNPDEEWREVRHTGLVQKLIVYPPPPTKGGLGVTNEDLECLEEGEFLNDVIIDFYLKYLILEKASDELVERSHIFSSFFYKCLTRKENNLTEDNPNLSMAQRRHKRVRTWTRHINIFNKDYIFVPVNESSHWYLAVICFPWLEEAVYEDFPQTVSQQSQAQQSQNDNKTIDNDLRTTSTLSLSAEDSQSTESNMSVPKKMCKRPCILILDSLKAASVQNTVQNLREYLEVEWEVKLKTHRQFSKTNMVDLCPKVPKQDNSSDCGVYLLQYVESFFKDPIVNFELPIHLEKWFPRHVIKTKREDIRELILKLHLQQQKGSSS
The class given is functional.

The target of experiment [8] is T2, Sentrin-specific protease 6 (Homo sapiens, UniProt Q9GZR1).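 Also: Luminescence-based dose-response confirmatory assay of SENP6 inhibition, following up an ultra-high-throughput screen.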
T2 sequence (Q9GZR1 whole entry): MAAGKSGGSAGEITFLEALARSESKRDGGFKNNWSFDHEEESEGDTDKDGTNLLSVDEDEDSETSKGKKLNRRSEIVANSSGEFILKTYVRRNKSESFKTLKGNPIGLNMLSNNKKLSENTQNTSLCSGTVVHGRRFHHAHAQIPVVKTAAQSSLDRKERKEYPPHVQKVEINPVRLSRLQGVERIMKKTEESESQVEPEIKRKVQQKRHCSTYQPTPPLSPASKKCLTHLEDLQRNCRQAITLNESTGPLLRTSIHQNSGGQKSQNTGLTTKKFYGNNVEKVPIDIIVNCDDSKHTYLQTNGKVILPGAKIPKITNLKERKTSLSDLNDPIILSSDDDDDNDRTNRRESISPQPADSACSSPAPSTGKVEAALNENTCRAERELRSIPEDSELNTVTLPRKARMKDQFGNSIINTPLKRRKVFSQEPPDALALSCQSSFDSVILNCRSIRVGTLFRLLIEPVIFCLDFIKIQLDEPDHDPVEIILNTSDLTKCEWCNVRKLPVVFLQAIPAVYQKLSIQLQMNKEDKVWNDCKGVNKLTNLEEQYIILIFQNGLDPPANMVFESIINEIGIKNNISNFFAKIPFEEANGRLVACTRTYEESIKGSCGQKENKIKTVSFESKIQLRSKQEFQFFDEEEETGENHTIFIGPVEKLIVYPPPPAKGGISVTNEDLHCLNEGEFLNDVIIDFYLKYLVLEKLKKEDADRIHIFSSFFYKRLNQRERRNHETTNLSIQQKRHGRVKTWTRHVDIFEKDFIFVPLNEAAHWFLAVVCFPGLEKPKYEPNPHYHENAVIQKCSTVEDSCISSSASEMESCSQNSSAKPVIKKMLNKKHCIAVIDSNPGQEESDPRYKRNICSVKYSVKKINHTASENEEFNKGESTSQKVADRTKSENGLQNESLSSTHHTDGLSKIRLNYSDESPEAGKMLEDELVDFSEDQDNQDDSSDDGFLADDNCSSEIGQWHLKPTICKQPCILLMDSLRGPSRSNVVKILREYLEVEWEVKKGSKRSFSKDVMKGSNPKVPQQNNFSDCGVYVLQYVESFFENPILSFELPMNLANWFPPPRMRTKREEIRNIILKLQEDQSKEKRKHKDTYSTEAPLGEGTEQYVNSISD
The class given is functional.

Experiment [9] addresses T3, Sentrin-specific protease 8 (Homo sapiens, UniProt Q96LD8).
T3 sequence (Q96LD8 whole entry): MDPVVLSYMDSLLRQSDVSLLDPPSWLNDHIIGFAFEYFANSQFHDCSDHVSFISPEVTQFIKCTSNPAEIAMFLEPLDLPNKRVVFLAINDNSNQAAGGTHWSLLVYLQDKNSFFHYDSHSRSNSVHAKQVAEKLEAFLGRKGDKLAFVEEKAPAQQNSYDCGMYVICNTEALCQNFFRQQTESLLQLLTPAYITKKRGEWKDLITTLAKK
In kind it is functional.

For experiment [10], the target named is T4, Caspase-3 (Homo sapiens, UniProt P42574).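 Also: Dose-response selectivity test against caspase-3 for candidate inhibitors of sentrin-specific proteases (SENPs).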
T4 sequence (P42574 whole entry): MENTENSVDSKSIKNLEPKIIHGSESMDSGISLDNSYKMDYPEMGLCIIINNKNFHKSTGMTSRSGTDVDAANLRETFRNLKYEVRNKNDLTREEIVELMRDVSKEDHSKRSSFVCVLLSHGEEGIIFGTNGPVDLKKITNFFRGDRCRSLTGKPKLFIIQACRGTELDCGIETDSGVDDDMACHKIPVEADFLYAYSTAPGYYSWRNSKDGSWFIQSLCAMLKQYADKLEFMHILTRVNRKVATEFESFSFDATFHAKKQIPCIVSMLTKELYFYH
In kind it is functional.

Experiment [11] addresses Cytochrome P450 3A4 (Homo sapiens, UniProt P08684).
The target in experiment [12] is T5, Histone-lysine N-methyltransferase NSD2 (Homo sapiens, UniProt O96028).
T5 sequence (O96028 whole entry): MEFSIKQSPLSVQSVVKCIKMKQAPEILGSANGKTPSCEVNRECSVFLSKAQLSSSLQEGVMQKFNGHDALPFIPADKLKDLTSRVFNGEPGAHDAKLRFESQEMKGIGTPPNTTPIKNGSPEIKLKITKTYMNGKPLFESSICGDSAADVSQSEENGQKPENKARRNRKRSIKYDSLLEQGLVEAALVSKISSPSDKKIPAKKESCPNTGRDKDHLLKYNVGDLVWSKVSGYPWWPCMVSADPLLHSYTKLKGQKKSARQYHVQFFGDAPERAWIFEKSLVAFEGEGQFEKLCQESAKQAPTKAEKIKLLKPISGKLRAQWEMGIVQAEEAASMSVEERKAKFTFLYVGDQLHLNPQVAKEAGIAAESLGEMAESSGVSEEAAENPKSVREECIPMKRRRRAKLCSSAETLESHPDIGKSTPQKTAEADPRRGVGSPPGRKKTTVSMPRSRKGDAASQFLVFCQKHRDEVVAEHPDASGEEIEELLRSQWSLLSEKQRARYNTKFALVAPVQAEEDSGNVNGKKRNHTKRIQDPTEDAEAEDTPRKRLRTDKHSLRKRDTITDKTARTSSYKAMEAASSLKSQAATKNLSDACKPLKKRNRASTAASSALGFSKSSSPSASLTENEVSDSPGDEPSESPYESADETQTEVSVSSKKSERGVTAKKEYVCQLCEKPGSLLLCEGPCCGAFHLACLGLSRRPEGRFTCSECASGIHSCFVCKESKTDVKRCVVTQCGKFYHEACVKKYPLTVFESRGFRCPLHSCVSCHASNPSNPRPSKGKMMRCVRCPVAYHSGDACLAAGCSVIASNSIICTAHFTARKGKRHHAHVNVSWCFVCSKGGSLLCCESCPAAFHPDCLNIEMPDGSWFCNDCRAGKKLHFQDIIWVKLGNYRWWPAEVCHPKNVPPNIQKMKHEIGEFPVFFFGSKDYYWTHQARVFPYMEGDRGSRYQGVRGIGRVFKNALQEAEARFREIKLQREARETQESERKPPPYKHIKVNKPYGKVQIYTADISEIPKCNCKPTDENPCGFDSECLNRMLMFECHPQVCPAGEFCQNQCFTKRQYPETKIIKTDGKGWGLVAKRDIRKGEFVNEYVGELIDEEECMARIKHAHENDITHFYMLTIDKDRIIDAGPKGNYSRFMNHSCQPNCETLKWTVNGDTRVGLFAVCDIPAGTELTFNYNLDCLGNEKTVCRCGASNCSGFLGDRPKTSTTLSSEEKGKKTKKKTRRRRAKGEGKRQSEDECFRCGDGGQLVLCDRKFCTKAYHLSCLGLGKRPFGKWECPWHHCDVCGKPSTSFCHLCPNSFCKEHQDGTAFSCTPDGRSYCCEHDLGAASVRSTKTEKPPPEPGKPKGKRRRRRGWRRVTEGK
The class given is biochemical.

Cytochrome P450 3A4, sequence (P08684 whole entry): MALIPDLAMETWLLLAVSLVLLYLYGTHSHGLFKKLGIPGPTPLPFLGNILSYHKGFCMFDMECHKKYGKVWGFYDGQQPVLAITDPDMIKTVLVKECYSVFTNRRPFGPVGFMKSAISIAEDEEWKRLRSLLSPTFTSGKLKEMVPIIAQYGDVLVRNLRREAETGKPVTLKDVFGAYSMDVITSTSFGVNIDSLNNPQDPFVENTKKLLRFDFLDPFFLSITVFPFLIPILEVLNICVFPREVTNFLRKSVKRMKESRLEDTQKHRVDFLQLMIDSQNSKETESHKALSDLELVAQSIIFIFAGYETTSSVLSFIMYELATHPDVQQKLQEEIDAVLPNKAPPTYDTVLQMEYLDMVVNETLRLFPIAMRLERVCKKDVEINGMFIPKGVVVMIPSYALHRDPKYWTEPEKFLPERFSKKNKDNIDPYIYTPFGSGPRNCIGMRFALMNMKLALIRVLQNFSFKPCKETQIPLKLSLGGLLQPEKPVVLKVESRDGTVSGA

In the case of `CCC1(O)C(=O)OCc2c1cc1n(c2=O)Cc2cc3cc4c(cc3nc2-1)OCO4` (centres undefined), the GI50 in [1], in experiment [2] and in experiment [3] was < 0.01 µM (active) throughout.
As to `COc1ccccc1C(=O)N/N=C(\C)c1ccc(NC(=O)Cc2ccccc2)cc1`, the EC50 in experiment [4], in experiment [5] and in experiment [6] was > 120 µM (not active) each time.
With `COc1cc(Cc2nccc3cc(OC)c(OC)cc23)c(C(C)=O)cc1OC`, the GI50 is 14.5 µM (inactive) in experiment [1], 20.4 µM (inactive) in experiment [2] and 1.66 µM (inactive) in [3].
`CCCCN1C(=O)C(=O)N(CC(=O)N2N=C3/C(=C/c4ccco4)CCCC3C2c2ccco2)C1=O` (centres undefined): the EC50 in [4] was 14.8 µM (active); in experiment [5], > 120 µM (not active); in experiment [6], 19.6 µM (active).
On to `NC1=NCN(C2OC(CO)C(O)C2O)C(=O)N1` (centres undefined), for which the values for the GI50 in experiment [1], in [2] and in [3] were 10.4 µM (inactive), 13.9 µM (inactive) and 8.57 µM (inactive), respectively.
In the case of `Cc1ccccc1NS(=O)(=O)c1cccc(C(=O)Nc2cccc(C(=O)O)c2)c1`, the IC50 in [7] is 9.34 µM (active); in experiment [8], 23.3 µM (active); in experiment [9], 23.7 µM (active); in experiment [10], 66.7 µM (active).
In the case of `O=C(Nc1ccccc1[N+](=O)[O-])C1COc2ccccc2O1` (centres undefined), the 50% effective concentration (EC50) in experiment [4] is > 120 µM (not active); in experiment [5], 0.244 µM (active); in experiment [6], 6.61 µM (active).
Take `C=C(C)C(O)CC/C(C)=C/Cc1c(O)ccc(C(=O)/C=C/c2ccc(O)cc2)c1O` (centres undefined) [XANTHOANGELOL B]: the IC50 was 3.39 µM (active) in experiment [7], 4.22 µM (active) in experiment [8], 5.08 µM (active) in [9] and 28.1 µM (active) in experiment [10].
For the compound `C=C1C(=O)O[C@@H]2[C@H]3O[C@]3(C)CCC=C(C)CC[C@@H]12`, the GI50 is 4.84 µM (inactive) in experiment [1], 16.4 µM (inactive) in [2] and 6.59 µM (inactive) in [3]. The half-maximal activity concentration (AC50) in experiment [11] is 10 µM (inconclusive).
As to `COC1=C(C)C(=O)C2=C(C1=O)C1C3CC4=C(C(=O)C(OC)=C(C)C4=O)C(CNC(=O)C(C)=O)N3C(C#N)C(C2)N1C` (centres undefined), in [12], the AC50 is 8.92 µM (active). The 50% growth inhibitory concentration (GI50) is 0.0448 µM (active) in experiment [1], < 0.01 µM (active) in [2] and 0.01 µM (active) in [3].
`CCCn1cc2c3c(cccc31)C1C=C(C)CN(C)C1C2` (centres undefined): the GI50 was 3.34 µM (inactive) in experiment [1], 14.2 µM (inactive) in experiment [2] and 5.69 µM (inactive) in experiment [3].
Take `CN(C)/N=N/c1ccc([N+](=O)[O-])cc1C(N)=O`: the GI50 in experiment [1], in [2] and in experiment [3] was > 100 µM (inactive) each time.
As for `O=C(c1ccccc1)c1ccc(Cn2cc(-c3ccccc3)nn2)cc1`, the half-maximal inhibitory concentration (IC50) in [7] was 5.67 µM (active); in experiment [8], 19.5 µM (active); in [9] it was 23.9 µM (active); in [10], 32.3 µM (active).
